Laboratory results: ChEMBL document CHEMBL1144534, “Molecular modeling of some 1H-benzimidazole derivatives with biological activity against Entamoeba histolytica: a comparative molecular field analysis study” (Bioorg Med Chem, 2007)

The compounds below were run on Entamoeba histolytica (assay: Antiamoebic activity against Entamoeba histolytica).
Type: functional, organism-based

Point of comparison: `Cn1c(N)nc2ccc(Cl)cc21`, IC50 245 nM. Against it:
- FC(F)(F)C(F)(F)c1nc2c(Br)c(Br)c(Br)c(Br)c2[nH]1 — within 1.5-fold, 214 nM
- CSc1nc2cc(Cl)c(Cl)cc2n1C — 4.3-fold higher, 1050 nM
- Cn1c(N)nc2cc(Cl)c(Cl)cc21 — 6.6-fold lower, 37.2 nM
- O=[N+]([O-])c1cc2nc(C(F)(F)F)[nH]c2cc1[N+](=O)[O-] — 5.5-fold higher, 1350 nM
- FC(F)(F)c1nc2c(Br)cc(Br)cc2[nH]1 — 4.9-fold lower, 50.1 nM
- FC(F)(F)c1nc2c(Br)c(Br)c(Br)c(Br)c2[nH]1 — within 1.5-fold, 302 nM
- CSc1nc2ccccc2n1C — within 1.5-fold, 195 nM
- CSc1nc2cc(Cl)ccc2n1C — 6.6-fold lower, 37.2 nM
- CSc1nc2ccc(Cl)cc2n1C — 2.3-fold higher, 575 nM
- Cn1c(S)nc2cc(Cl)c(Cl)cc21 — 1.9-fold lower, 129 nM
- FC(F)(F)c1nc2cc(Br)c(Br)cc2[nH]1 — 1.7-fold higher, 427 nM
- FC(F)(F)C(F)(F)c1nc2cc(Cl)c(Cl)cc2[nH]1 — within 1.5-fold, 209 nM
- Cn1c(S)nc2ccccc21 — 41-fold lower, 6.03 nM
- Cc1nc2cc(Cl)c(Cl)cc2n1C — 19-fold lower, 12.9 nM
- Cc1nc2cc(Cl)ccc2n1C — 49-fold lower, 5.01 nM
- Cn1c(S)nc2cc(Cl)ccc21 — 24-fold lower, 10 nM
- Cn1c(S)nc2ccc(Cl)cc21 — 16-fold higher, 3800 nM
- Cc1nc2ccccc2n1C — 4-fold lower, 61.7 nM
- Cc1nc2ccc(Cl)cc2n1C — within 1.5-fold, 204 nM
- FC(F)(F)c1nc2cc(Br)ccc2[nH]1 — 5.4-fold higher, 1320 nM
